In patent publication US12544348B2, “Methods for treating APOE4/4-associated disorders” (The Regents of the University of California, priority 2018, dated 2026):

System: hippocampal slices from apoE4-KI mice
Experiment: Brain slice electrophysiological recordings (LTP, input-output) after in vivo treatment
Details: 0.2 mg/kg for 8 weeks
Text: Brain slice electrophysiological recordings and data analyses. For long-term potentiation (LTP) recording study, apoE4-KI mice were randomly allocated to vehicle (n=6, age 15.2±0.56 months) and bumetanide (n=3, age 15.1±0.06) treatment groups. ApoE3-KI mice were similarly allocated into vehicle (n=6, age 15.5±0.11) and bumetanide (n-3, age 15.57±0.19) treatment groups. For input/output recording study, apoE4-KI mice were randomly allocated to vehicle (n=3, age 15.1±0.06 months) and bumetanide (n=3, age 15.1±0.06) treatment groups. ApoE3-KI mice were similarly allocated into vehicle (n=7, age 15.3±0.06) and bumetanide (n=3, age 15.57±0.29) treatment groups. […]
Field post-synaptic potentials (fPSPs) were elicited by orthodromic stimulation of Schaffer collaterals by concentric bipolar stimulating electrode (FHC, Inc., USA) connected to a constant voltage isolated stimulator (DS2A-MKII, Digitimer North America) and placed in CA2 stratum radiatum. fPSPs were recorded with a glass borosilicate microelectrode filled with ACSF and placed in CA1 stratum radiatum. Signals were sampled and digitized by MultiClamp 700B amplifier and Digidata 1550B1 acquisition system with pClamp10 software (Molecular Devices, USA), and analyzed using IgorPro6 software (Wavemetrics Inc., USA) running custom macros. fPSP slopes were analyzed as the linear fit slope values between 10% and 90% of fPSP peak. […]

Compound: CCCCNc1cc(C(=O)O)cc(S(N)(=O)=O)c1Oc1ccccc1 [bumetanide, 3-(butylamino)-4-phenoxy-5-sulfamoylbenzoic acid]
- long-term potentiation (LTP) in CA1 region of hippocampal slices (aged (16-month-old) apoE4-KI mice, theta burst stimulation): completely rescued LTP deficit
- neuronal hyperexcitability in CA1 region (input-output curve analysis) (aged apoE4-KI mice): normalized
